Laboratory results: paper PMC3598007, “Interactions of zebrafish peptide YYb with the neuropeptide Y-family receptors Y4, Y7, Y8a, and Y8b” (Frontiers in Neuroscience, 2013)
“Also recorded” adds a separate entry of the source. No end group written: not given here.

Legend:
Y2 [1] = conditions: mammals; PYY3-36 formed by dipeptidyl peptidase IV cleavage; ref Mentlein et al., 1993; cited from earlier work
Description: Studies of how NPY affects appetite have been conducted in several fish species (Narnaware et al., [2000]; Narnaware and Peter, [2001]) and the NPY system seems to influence food intake, although the orexigenic receptor subtypes have not been identified in the fish species studied. The receptors that in mammals are involved in inhibition of appetite have been known in zebrafish for several years and there have been some studies investigating how PYY can inhibit feeding. In mammals it seems like the main inhibitory action on appetite is performed by PYY3-36. This peptide is the result of cleava ...

Y4 = conditions: PP, PYY and NPY compared, ref Lundell et al., 1995, 2002; cited from earlier work
Description: Functional and evolutionary studies in mammals have shown that their Y4 receptor has evolved a partnership with pancreatic polypeptide (PP). It should be stressed that PYYb is not the teleost fish ortholog of PP, instead the latter is a tandem duplicate of PYY that probably took place early in the tetrapod lineage. […] Thus, the PP-Y4 preference seems to have evolved in mammals (Lundell et al., [1995], [2002]). One aim of the present study was to investigate ...

Y7 = assay: Competition binding with 125I-pPYY, zebrafish Y7 receptor (HEK 293-EBNA cells); conditions: for Ki: zebrafish Y7, semi-stably expressed in HEK 293-EBNA cells, competition with 125I-pPYY, 25 mM HEPES pH 7.4, 2.5 mM CaCl2, 1 mM MgCl2, bacitracin, 2 h incubation, mean ± SEM, n = 5 (zfNPY), 3 (zfPYYa), 5 (zfPYYb)
Description: (§1) The zebrafish receptors have previously been cloned and expressed in cell lines by our laboratory. The zebrafish Y8a and Y8b receptors were inserted in a pTEJ-8 vector and stably expressed in CHO-cells (Ringvall et al., [1997]; Berglund et al., [2000]). Y7 has been inserted in a pCEP4 vector and semi-stably expressed in HEK 293-EBNA cells (Fredriksson et al., [2004]). The zebrafish Y4 receptor coding region was inserted in a pTEJ-8 vector (Starback et al., [1999]) and transient expressed in HEK cells. The cell-lines were grown according to the recommendations of the manufacturer. Ninety percent of the confluent cells were harvested and mixed with 100 μl 25 mM HEPES buffer (pH 7.4 and 2.5 mM CaCl2 and 1 mM MgCl2) and stored at −80°C.
Thawed aliquots of transfected cells were mixed with 1 ml 25 mM HEPES buffer (pH 7.4, 2.5 mM CaCl2, 1 mM MgCl2 and 0.2 g/l bacitracin). The samples were homogenized and another 1 ml buffer was added. ^125I-pPYY was used as radioligand in all experiments, radioligand, and unlabeled ligands (serial concentrations of zfNPY, zfPYYa, and zfPYYb respectively) and cells were mixed at the proportion 2:1:1 in 100 μl reactions followed by 2 h incubation. The zebrafish NPY (zfNPY) and PYYa (zfPYYa) were synthesized at Eli Lilly and Company. The zebrafish PYYb (zfPYYb) was supplied in a crude form by GL Biochem Shanghai and purified as previously described (Fredriksson et al., [2006]). The incubation was terminated by rapid filtration through GF/C filters pre-soaked in 0.3% polyethyleneimin, using a TOMTEC cell harvester (Orange, CT, USA). The filters were washed with 50 mM Tris-HCl (pH 7.4) and dried at 50°C for 30 min. Filters were treated with MeltiLex A melt on scintillator sheets (Perkin Elmer, Boston, MA, USA). The radioactivity was measured using a Wallac 1450 Betaplate counter and the results were analyzed using Prism 4.0 software package (GraphPad, San Diego, CA, USA). The pKi values were compared to each other using One-Way ANOVA followed by Tukey-Kramer Multiple Comparison Test (GraphPad, San Diego, CA, USA).
The zebrafish receptors were expressed in mammalian cells and the membrane fraction was used for binding experiments. Competition binding experiments were performed using the three endogenous ligands NPY, PYYa and PYYb in competition with iodinated porcine PYY. The mature 36 amino acid PYYb peptide has fourteen differences compared to NPY and seven when compared with PYYa (see Figure 1). PYYa differs from NPY at nine positions. Thus, PYYb has clearly changed more than PYYa after duplication of their common ancestral gene.

Y8a (Yc) = assay: Competition binding with 125I-pPYY, zebrafish Y8a receptor (CHO-cells)
Description: as §1
(§2) Thawed aliquots of transfected cells were mixed with 1 ml 25 mM HEPES buffer (pH 7.4, 2.5 mM CaCl2, 1 mM MgCl2 and 0.2 g/l bacitracin). The samples were homogenized and another 1 ml buffer was added. ^125I-pPYY was used as radioligand in all experiments, radioligand, and unlabeled ligands (serial concentrations of zfNPY, zfPYYa, and zfPYYb respectively) and cells were mixed at the proportion 2:1:1 in 100 μl reactions followed by 2 h incubation. […] The radioactivity was measured using a Wallac 1450 Betaplate counter and the results were analyzed using Prism 4.0 software package (GraphPad, San Diego, CA, USA). […]

Y4(Ya) = assay: Competition binding with 125I-pPYY, zebrafish Y4 receptor (HEK cells); conditions: transiently expressed in HEK cells, competition with 125I-pPYY, 25 mM HEPES pH 7.4, 2.5 mM CaCl2, 1 mM MgCl2, bacitracin, 2 h incubation, mean ± SEM, n = 3 (zfNPY), 3 (zfPYYa), 3 (zfPYYb)
Description: as §1, §2

Y8b (Yb) = assay: Competition binding with 125I-pPYY, zebrafish Y8b receptor (CHO-cells); conditions: stably expressed in CHO-cells, competition with 125I-pPYY, 25 mM HEPES pH 7.4, 2.5 mM CaCl2, 1 mM MgCl2, bacitracin, 2 h incubation, mean ± SEM, n = 4 (zfNPY), 3 (zfPYYa), 4 (zfPYYb)
Description: as §1, §2

Y2 [2] = conditions: zebrafish Y2, ref Fredriksson et al., 2006, cited from earlier work
Description: The neuropeptide Y (NPY) system influences numerous physiological functions including feeding behavior, endocrine regulation, and cardiovascular regulation. In jawed vertebrates it consists of 3–4 peptides and 4–7 receptors. Teleost fishes have unique duplicates of NPY and PYY as well as the Y8 receptor. In the zebrafish, the NPY system consists of the peptides NPYa, PYYa, and PYYb (NPYb appears to have been lost) and at least seven NPY receptors: Y1, Y2, Y2-2, Y4, Y7, Y8a, and Y8b. Previously PYYb binding has been reported for Y2 and Y2-2. To search for peptide-receptor preferences, we have i ... || The main objective of this study was to examine the affinity of PYYb for the Y4, Y7, Y8a, and Y8b receptors, and to compare it to the other two endogenous peptides, NPY and PYYa. […] The zebrafish Y7 receptor is 50% identical to zebrafish Y2 and PYYa has low affinity for both of these. This observation will be interesting to correlate with the physiological roles of the peptides and receptors in z ... || (+ 1 further places)

## PYY3-36
Y2 [1]
  selectivity for Y2 over the other receptor subtypes: selectivity for Y2 over the other receptor subtypes

## chicken PP: chicken pancreatic polypeptide (GPSQPTYPGDDAPVEDLIRFYNDLQQYLNVVTRHRY; ends and bridges not checked; UniProt P68248 26-61, looked up)
Y4
  affinity for chicken Y4: equal affinities

## zfNPY: endogenous zebrafish neuropeptide Y, synthesized at Eli Lilly and Company
Y7
  Ki: 0.57 ± 0.16 nM
Y8a (Yc); zebrafish Y8a (Yc), stably expressed in CHO-cells, competition with 125I-pPYY, 25 mM HEPES pH 7.4, 2.5 mM CaCl2, 1 mM MgCl2, bacitracin, 2 h incubation, mean ± SEM, n = 7 (zfNPY), 6 (zfPYYa), 4 (zfPYYb)
  Ki: 0.21 ± 0.07 nM
Y4(Ya)
  Ki: 0.033 ± 0.005 nM
Y8b (Yb)
  Ki: 0.13 ± 0.04 nM

## zfPYYa: endogenous zebrafish PYYa, synthesized at Eli Lilly and Company
Y7
  Ki: 1.82 nM
Y7; zebrafish Y7, PYYa vs NPY and PYYb
  fold lower affinity for Y7 than NPY and PYYb: 3 fold
Y7; zebrafish Y7, pKi compared by One-Way ANOVA, Tukey-Kramer
  affinity for Y7 compared with NPY and PYYb: significantly lower affinity; also recorded: low affinity
Y8a (Yc); zebrafish Y8a, PYYa vs NPY and PYYb
  affinity for Y8a compared with the other two peptides: slightly lower than the other two peptides
Y4(Ya)
  Ki: 0.034 ± 0.009 nM
Y8b (Yb)
  Ki: 0.25 ± 0.12 nM
Y2 [2]; previously reported
  affinity for Y2: 3 nM
Y2 [2]
  preference of Y2 / affinity for Y2: low affinity
